Laboratory results taken from the supplement of paper PMC10307832.

Columns and labels:
Experiment in all cases: relative viability (nuclei count vs DMSO), 5 days (fraction); higher = more cells survive
Quizartinib + Crizotinib = compound: CC(C)(C)c1cc(NC(=O)Nc2ccc(-c3cn4c(n3)sc3cc(OCCN5CCOCC5)ccc34)cc2)no1 [Quizartinib] + C[C@@H](Oc1cc(-c2cnn(C3CCNCC3)c2)cnc1N)c1c(Cl)ccc(F)c1Cl [Crizotinib] (partner 1 µM)
Method in brief: (§1)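 Each reported value is a median over duplicate plates. It expresses relative viability: treated-well nuclei count divided by vehicle-well nuclei count. Lung cancer cell lines in 1536-well plates were dosed by pin tool a day after seeding, alone with one drug or with a fixed anchor-drug dose plus five library-drug doses (not always all listed) in √10 steps, and nuclei were counted after 5 days.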

YM155 + Tozasertib = compound: COCC[n+]1c2c(n(Cc3cnccn3)c1C)C(=O)c1ccccc1C2=O [YM155] + Cc1cc(Nc2cc(N3CCN(C)CC3)nc(Sc3ccc(NC(=O)C4CC4)cc3)n2)n[nH]1 [Tozasertib] (partner 0.1 µM)
Method in brief: as §1

Quizartinib + Decitabine = compound: CC(C)(C)c1cc(NC(=O)Nc2ccc(-c3cn4c(n3)sc3cc(OCCN5CCOCC5)ccc34)cc2)no1 [Quizartinib] + Nc1ncn([C@H]2C[C@H](O)[C@@H](CO)O2)c(=O)n1 [Decitabine] (partner 2 µM)
Method in brief: as §1

YM155 + Vorinostat = compound: COCC[n+]1c2c(n(Cc3cnccn3)c1C)C(=O)c1ccccc1C2=O [YM155] + O=C(CCCCCCC(=O)Nc1ccccc1)NO [Vorinostat] (partner 1 µM)
Method in brief: as §1

| Cell Line | relative viability (Quizartinib + Crizotinib; first compound 0.001 µM) | relative viability (Quizartinib + Crizotinib; first compound 0.003162 µM) | relative viability (Quizartinib + Crizotinib; first compound 0.01 µM) | relative viability (Quizartinib + Crizotinib; first compound 0.1 µM) | relative viability (YM155 + Tozasertib; first compound 0.002 µM) | relative viability (YM155 + Tozasertib; first compound 0.006325 µM) | relative viability (YM155 + Tozasertib; first compound 0.02 µM) | relative viability (YM155 + Tozasertib; first compound 0.06325 µM) | relative viability (Quizartinib + Crizotinib; first compound 0.03162 µM) | relative viability (Quizartinib + Decitabine; first compound 0.001 µM) | relative viability (Quizartinib + Decitabine; first compound 0.003162 µM) | relative viability (Quizartinib + Decitabine; first compound 0.01 µM) | relative viability (Quizartinib + Decitabine; first compound 0.03162 µM) | relative viability (Quizartinib + Decitabine; first compound 0.1 µM) | relative viability (YM155 + Vorinostat; first compound 0.002 µM) | relative viability (YM155 + Vorinostat; first compound 0.006325 µM) | relative viability (YM155 + Vorinostat; first compound 0.02 µM) | relative viability (YM155 + Vorinostat; first compound 0.06325 µM) |
| --- | --- | --- | --- | --- | --- | --- | --- | --- | --- | --- | --- | --- | --- | --- | --- | --- | --- | --- |
| NCI-H1563 | 0.825 | 0.851 | 0.982 | 0.78 |  |  |  |  |  |  |  |  |  |  |  |  |  |  |
| NCI-H1623 |  |  |  |  | 0.434 | 0.461 | 0.431 | 0.425 |  |  |  |  |  |  |  |  |  |  |
| NCI-H1703 | 0.791 | 0.718 | 0.219 | 0.335 |  |  |  |  | 0.136 |  |  |  |  |  |  |  |  |  |
| NCI-H1792 | 0.743 | 0.978 | 1.04 | 0.995 |  |  |  |  | 0.958 | 0.459 | 0.502 | 0.598 | 0.449 | 0.577 |  |  |  |  |
| NCI-H1793 |  |  |  |  | 0.385 | 0.38 | 0.369 | 0.32 |  | 0.543 | 0.404 | 0.534 | 0.534 | 0.466 | 0.719 | 0.641 | 0.89 | 0.74 |
| NCI-H2228 | 0.439 | 0.414 | 0.317 | 0.429 | 0.265 | 0.26 | 0.213 | 0.316 | 0.418 |  |  |  |  |  | 0.451 | 0.82 | 0.585 | 0.51 |
| NCI-H2342 |  |  |  |  | 0.477 | 0.566 | 0.541 | 0.479 |  | 0.749 | 0.763 | 0.678 | 0.729 | 0.724 | 0.717 | 0.724 | 0.705 | 0.704 |
| SW 900 |  |  |  |  | 0.816 | 0.553 | 0.588 | 0.45 |  | 0.42 | 0.392 | 0.422 | 0.372 | 0.336 |  | 0.465 | 0.582 | 0.408 |
